According to ChEMBL document CHEMBL4610038, “The synthesis of trifluoromethylated N-nitroaryl-2-amino-1,3-dichloropropane derivatives and their evaluation as potential anti-cancer agents” (Bioorg Med Chem Lett, 2020):

Legend:
MCF7 [1] = test: Cytotoxicity against human MCF7 cells assessed as cell viability at 100 uM relative to control; assay type: functional; conditions: read-out: Activity
MDA-MB-231 [2] = test: Cytotoxicity against human MDA-MB-231 cells assessed as cell viability at 100 uM relative to control; assay type: functional; conditions: read-out: Activity
MDA-MB-468 [3] = test: Cytotoxicity against human MDA-MB-468 cells assessed as cell viability at 100 uM relative to control; assay type: functional; conditions: read-out: Activity
SK-BR-3 [4] = test: Cytotoxicity against human SKBR3 cells assessed as cell viability at 100 uM relative to control; assay type: functional; conditions: read-out: Activity
T47D [5] = test: Cytotoxicity against human T47D cells assessed as cell viability at 100 uM relative to control; assay type: functional; conditions: read-out: Activity
Caco-2 [6] = test: Cytotoxicity against human Caco2 cells assessed as cell viability at 100 uM relative to control; assay type: functional; conditions: read-out: Activity
HCT-116 [7] = test: Cytotoxicity against human HCT116 cells assessed as cell viability at 100 uM relative to control; assay type: functional; conditions: read-out: Activity
HT-29 [8] = test: Cytotoxicity against human HT-29 cells assessed as cell viability at 100 uM relative to control; assay type: functional; conditions: read-out: Activity
SW48 [9] = test: Cytotoxicity against human SW48 cells assessed as cell viability at 100 uM relative to control; assay type: functional; conditions: read-out: Activity
A549 [10] = test: Cytotoxicity against human A549 cells assessed as cell viability at 100 uM relative to control; assay type: functional; conditions: read-out: Activity
NCI-H1299 [11] = test: Cytotoxicity against human H1299 cells assessed as cell viability at 100 uM relative to control; assay type: functional; conditions: read-out: Activity
CNE [12] = test: Cytotoxicity against human CNE1 cells assessed as cell viability at 100 uM relative to control; assay type: functional; conditions: read-out: Activity
[13] = Cytotoxicity against human HK1 cells assessed as cell viability at 100 uM relative to control; assay type: functional; conditions: HK-1, read-out: Activity
SUNE1 [14] = test: Cytotoxicity against human SUNE1 cells assessed as cell viability at 100 uM relative to control; assay type: functional; conditions: read-out: Activity
SH-SY5Y [15] = test: Cytotoxicity against human SH-SY5Y cells assessed as cell viability at 100 uM relative to control; assay type: functional; conditions: read-out: Activity
ASPC1 [16] = test: Cytotoxicity against human AsPC1 cells assessed as cell viability at 100 uM relative to control; assay type: functional; conditions: read-out: Activity
BXPC-3 [17] = test: Cytotoxicity against human BxPC3 cells assessed as cell viability at 100 uM relative to control; assay type: functional; conditions: read-out: Activity
SW1990 [18] = test: Cytotoxicity against human SW1990 cells assessed as cell viability at 100 uM relative to control; assay type: functional; conditions: read-out: Activity
[19] = Cytotoxicity against human MCF10A cells assessed as cell viability at 100 uM relative to control; assay type: cell-based, MCF-10A; conditions: read-out: Activity
[20] = Cytotoxicity against human MRC5 cells assessed as cell viability at 100 uM relative to control; assay type: cell-based; conditions: read-out: Activity
MCF7 [21] = test: Cytotoxicity against human MCF7 cells assessed as reduction in cell viability; assay type: functional, cell-based
MDA-MB-231 [22] = test: Cytotoxicity against human MDA-MB-231 cells assessed as reduction in cell viability; assay type: functional, cell-based
MDA-MB-468 [23] = test: Cytotoxicity against human MDA-MB-468 cells assessed as reduction in cell viability; assay type: functional, cell-based
SK-BR-3 [24] = test: Cytotoxicity against human SKBR3 cells assessed as reduction in cell viability; assay type: functional, cell-based
T47D [25] = test: Cytotoxicity against human T47D cells assessed as reduction in cell viability; assay type: functional, cell-based
Caco-2 [26] = test: Cytotoxicity against human Caco2 cells assessed as reduction in cell viability; assay type: functional, cell-based
HCT-116 [27] = test: Cytotoxicity against human HCT116 cells assessed as reduction in cell viability; assay type: functional, cell-based
HT-29 [28] = test: Cytotoxicity against human HT-29 cells assessed as reduction in cell viability; assay type: functional, cell-based
SW48 [29] = test: Cytotoxicity against human SW48 cells assessed as reduction in cell viability; assay type: functional, cell-based
A549 [30] = test: Cytotoxicity against human A549 cells assessed as reduction in cell viability; assay type: functional, cell-based
NCI-H1299 [31] = test: Cytotoxicity against human H1299 cells assessed as reduction in cell viability; assay type: functional, cell-based
CNE [32] = test: Cytotoxicity against human CNE1 cells assessed as reduction in cell viability; assay type: functional, cell-based
[33] = Cytotoxicity against human HK1 cells assessed as reduction in cell viability; assay type: functional, cell-based; conditions: HK-1
SUNE1 [34] = test: Cytotoxicity against human SUNE1 cells assessed as reduction in cell viability; assay type: functional, cell-based
SH-SY5Y [35] = test: Cytotoxicity against human SH-SY5Y cells assessed as reduction in cell viability; assay type: functional, cell-based
ASPC1 [36] = test: Cytotoxicity against human AsPC1 cells assessed as reduction in cell viability; assay type: functional, cell-based
BXPC-3 [37] = test: Cytotoxicity against human BxPC3 cells assessed as reduction in cell viability; assay type: functional, cell-based
SW1990 [38] = test: Cytotoxicity against human SW1990 cells assessed as reduction in cell viability; assay type: functional, cell-based
MCF-10A = test: Cytotoxicity against human MCF10A cells assessed as reduction in cell viability; assay type: cell-based
MRC5 = test: Cytotoxicity against human MRC5 cells assessed as reduction in cell viability; assay type: cell-based

O=[N+]([O-])c1ccc(NC(CO)CO)c([N+](=O)[O-])c1
viability at 100 µM (MCF7 [1]): 55.5%
viability at 100 µM (MDA-MB-231 [2]): 79.4%
viability at 100 µM (MDA-MB-468 [3]): 106%
viability at 100 µM (SK-BR-3 [4]): 98.9%
viability at 100 µM (T47D [5]): 79.9%
viability at 100 µM (Caco-2 [6]): 102%
viability at 100 µM (HCT-116 [7]): 81.9%
viability at 100 µM (HT-29 [8]): 89.6%
viability at 100 µM (SW48 [9]): 88.2%
viability at 100 µM (A549 [10]): 77.4%
viability at 100 µM (NCI-H1299 [11]): 89.8%
viability at 100 µM (CNE [12]): 102%
viability at 100 µM [13]: 103%
viability at 100 µM (SUNE1 [14]): 106%
viability at 100 µM (SH-SY5Y [15]): 86.1%
viability at 100 µM (ASPC1 [16]): 108%
viability at 100 µM (BXPC-3 [17]): 104%
viability at 100 µM (SW1990 [18]): 65.8%
viability at 100 µM [19]: 105%
viability at 100 µM [20]: 78.9%
IC50 (MCF7 [21]): > 100 µM
IC50 (MDA-MB-231 [22]): > 100 µM
IC50 (MDA-MB-468 [23]): > 100 µM
IC50 (SK-BR-3 [24]): > 100 µM
IC50 (T47D [25]): > 100 µM
IC50 (Caco-2 [26]): > 100 µM
IC50 (HCT-116 [27]): > 100 µM
IC50 (HT-29 [28]): > 100 µM
IC50 (SW48 [29]): > 100 µM
IC50 (A549 [30]): > 100 µM
IC50 (NCI-H1299 [31]): > 100 µM
IC50 (CNE [32]): > 100 µM
IC50 [33]: > 100 µM
IC50 (SUNE1 [34]): > 100 µM
IC50 (SH-SY5Y [35]): > 100 µM
IC50 (ASPC1 [36]): > 100 µM
IC50 (BXPC-3 [37]): > 100 µM
IC50 (SW1990 [38]): > 100 µM
IC50 (MCF-10A): > 100 µM
IC50 (MRC5): > 100 µM

O=[N+]([O-])c1ccc(NC(CO)CO)cc1
viability at 100 µM (MCF7 [1]): 65.6%
viability at 100 µM (MDA-MB-231 [2]): 87.7%
viability at 100 µM (MDA-MB-468 [3]): 102%
viability at 100 µM (SK-BR-3 [4]): 93.1%
viability at 100 µM (T47D [5]): 73.6%
viability at 100 µM (Caco-2 [6]): 101%
viability at 100 µM (HCT-116 [7]): 89.7%
viability at 100 µM (HT-29 [8]): 96.3%
viability at 100 µM (SW48 [9]): 95.3%
viability at 100 µM (A549 [10]): 96.7%
viability at 100 µM (NCI-H1299 [11]): 92.7%
viability at 100 µM (CNE [12]): 104%
viability at 100 µM [13]: 99.6%
viability at 100 µM (SUNE1 [14]): 109%
viability at 100 µM (SH-SY5Y [15]): 99.9%
viability at 100 µM (ASPC1 [16]): 96.4%
viability at 100 µM (BXPC-3 [17]): 100%
viability at 100 µM (SW1990 [18]): 87.5%
viability at 100 µM [19]: 103%
viability at 100 µM [20]: 32.2%
IC50 (MCF7 [21]): > 100 µM
IC50 (MDA-MB-231 [22]): > 100 µM
IC50 (MDA-MB-468 [23]): > 100 µM
IC50 (SK-BR-3 [24]): > 100 µM
IC50 (T47D [25]): > 100 µM
IC50 (Caco-2 [26]): > 100 µM
IC50 (HCT-116 [27]): > 100 µM
IC50 (HT-29 [28]): > 100 µM
IC50 (SW48 [29]): > 100 µM
IC50 (A549 [30]): > 100 µM
IC50 (NCI-H1299 [31]): > 100 µM
IC50 (CNE [32]): > 100 µM
IC50 [33]: > 100 µM
IC50 (SUNE1 [34]): > 100 µM
IC50 (SH-SY5Y [35]): > 100 µM
IC50 (ASPC1 [36]): > 100 µM
IC50 (BXPC-3 [37]): > 100 µM
IC50 (SW1990 [38]): > 100 µM
IC50 (MCF-10A): > 100 µM
IC50 (MRC5): 60.2 µM

O=[N+]([O-])c1ccc(NC(CO)CO)c(C(F)(F)F)c1
viability at 100 µM (MCF7 [1]): 45.7%
viability at 100 µM (MDA-MB-231 [2]): 93.1%
viability at 100 µM (MDA-MB-468 [3]): 93.2%
viability at 100 µM (SK-BR-3 [4]): 75.2%
viability at 100 µM (T47D [5]): 59.1%
viability at 100 µM (Caco-2 [6]): 101%
viability at 100 µM (HCT-116 [7]): 84.9%
viability at 100 µM (HT-29 [8]): 84.2%
viability at 100 µM (SW48 [9]): 61.8%
viability at 100 µM (A549 [10]): 99.6%
viability at 100 µM (NCI-H1299 [11]): 93.1%
viability at 100 µM (CNE [12]): 82.5%
viability at 100 µM [13]: 90.4%
viability at 100 µM (SUNE1 [14]): 52.4%
viability at 100 µM (SH-SY5Y [15]): 74.7%
viability at 100 µM (ASPC1 [16]): 84.7%
viability at 100 µM (BXPC-3 [17]): 109%
viability at 100 µM (SW1990 [18]): 72.4%
viability at 100 µM [19]: 88.8%
viability at 100 µM [20]: 74.9%
IC50 (MCF7 [21]): 88.3 µM
IC50 (MDA-MB-231 [22]): > 100 µM
IC50 (MDA-MB-468 [23]): > 100 µM
IC50 (SK-BR-3 [24]): > 100 µM
IC50 (T47D [25]): > 100 µM
IC50 (Caco-2 [26]): > 100 µM
IC50 (HCT-116 [27]): > 100 µM
IC50 (HT-29 [28]): > 100 µM
IC50 (SW48 [29]): > 100 µM
IC50 (A549 [30]): > 100 µM
IC50 (NCI-H1299 [31]): > 100 µM
IC50 (CNE [32]): > 100 µM
IC50 [33]: > 100 µM
IC50 (SUNE1 [34]): > 100 µM
IC50 (SH-SY5Y [35]): > 100 µM
IC50 (ASPC1 [36]): > 100 µM
IC50 (BXPC-3 [37]): > 100 µM
IC50 (SW1990 [38]): > 100 µM
IC50 (MCF-10A): > 100 µM
IC50 (MRC5): > 100 µM
